We go through 3 molecules from patent US7119076B2, “Preventives or remedies for endometriosis or uterine myoma” (priority 2000, dated 2006).

For this assay, the system named is endometriosis model rats. Put plainly: Therapeutic effect in endometriosis model rats (autotransplanted uterine tissue on peritoneum), histology of lesion. The format is in vivo, Sprague-Dawley rats (female). Conditions: oral, lesion excised seven days after preparation; for invasion of mast cells in lesion sample: light and electron microscopy; for degree of interstitial proliferative lesion: versus control group. Here is the method: Endometriosis model rats were prepared by the method described in Michael W. Vernon et al., FERTILITY AND STERILITY, Vol. 44, No. 5, Nov. 1985. That is, endometriosis model rats were prepared as follows: Sprague-Dawley rats (female) of 8 weeks old were acclimatized for 2 weeks under 12 hours light-dark condition. From each rat, right uterine horn was excised under general anesthesia with sevoflurane and ketamine hydrochloride, and a tissue piece sizing 5 mm×5 mm was prepared therefrom. The tissue piece was subjected to autotransplantation such that the endometrium surface is attached to peritoneum.
From 24 hours after the preparation of the endometriosis model rats, commercially available clarithromycin tablets (trademark “Clarith Tablet 50 for Children” prepared by Taisho Pharmaceutical Co., Ltd) were orally administered to the rats for 3 days. […] Clarithromycin was not administered to control animals. Seven days after the preparation of the model rats, at which the model lesion reached its peak, the peritoneum tissue including the graft up to the abdominal muscle was excised to obtain a lesion sample. From the thus obtained samples, light microscope specimens (hematoxylin-eosin staining, toluidine blue staining) and electron microscope specimens (uranium-lead double staining) were prepared, and the existence of invaded mast cells, which is a symptom of endometriosis, and the degree of interstitial proliferative lesion were observed.

Where [1] appears, read: 10 mg/kg per day for 3 days from 24 hours after model preparation.
[2] abbreviates: 6 mg/kg per day for 3 days from 24 hours after model preparation.

Take `CC[C@H]1OC(=O)[C@H](C)[C@@H](O[C@H]2C[C@@](C)(OC)[C@@H](O)[C@H](C)O2)[C@H](C)[C@@H](O[C@@H]2O[C@H](C)C[C@H](N(C)C)[C@H]2O)[C@](C)(O)C[C@@H](C)CN(C)[C@H](C)[C@@H](O)[C@]1(C)O` [azithromycin]: under setting [1], the “invasion of mast cells in lesion sample” value was “not observed” and the “degree of interstitial proliferative lesion” value (shortened to “degree”) was “apparently reduced”.

As for `CC[C@H]1OC(=O)[C@H](C)[C@@H](O[C@H]2C[C@@](C)(OC)[C@@H](O)[C@H](C)O2)[C@H](C)[C@@H](O[C@@H]2O[C@H](C)C[C@H](N(C)C)[C@H]2O)[C@](C)(O)C[C@@H](C)/C(=N\OCOCCOC)[C@H](C)[C@@H](O)[C@]1(C)O` [roxithromycin], under setting [2], the “invasion of mast cells in lesion sample” value was “not observed” and the “degree” value was “apparently reduced”.

Consider `CC[C@H]1OC(=O)[C@H](C)[C@@H](O[C@H]2C[C@@](C)(OC)[C@@H](O)[C@H](C)O2)[C@H](C)[C@@H](O[C@@H]2O[C@H](C)C[C@H](N(C)C)[C@H]2O)[C@](C)(OC)C[C@@H](C)C(=O)[C@H](C)[C@@H](O)[C@]1(C)O` [clarithromycin], for which, under setting [1], the “invasion of mast cells in lesion sample” value is given as “not observed” and the “degree” value is listed as “apparently reduced”.
